Test results as given in patent US20040214799A1, “Cancerous metastasis inhibitors containing carbacyclic phosphatidic acid derivatives” (priority 2001, published 2004).

Experiments:
MM1 cells [1] = conditions: Int. J. Cancer 81, 918-922 (1999), cited from earlier work; for suppressed LPA-induced invasion by: studied by Mukai et al.; for invasion suppressing action on LPA-induced invasion (in words): reported by Mukai et al.
MM1 cells [2] = experiment: Effect on the proliferation of MM1 cells; assay type: cell-based, rat; conditions: 12.5 μM or 25 μM cPA, 10% FBS, 24 hours and 72 hours
Description: 12.5 μM and 25 μM cPA were added to media containing 10% FBS, and then the cells were cultured under conditions of 37° C. and 5% CO2 for 24 hours and 72 hours. The number of the MM1 cells was counted using a hemocytometer.

MM1 cells [3] = experiment: In vitro invasion assay, LPA-induced invasion of MM1 cells across mesothelial cell monolayer; assay type: cell-based, rat; conditions: 25 μM cPA derivative, 25 μM LPA, 20 hours
Description: (§1) The abdomen of a male DONRYU rat (300 g, NIPPON BIO-SUPP. CENTER) was opened aseptically. The thus obtained mesenterium was treated with 0.25% trypsin at 37° C. for 15 minutes, filtrated with a 150 μm stainless mesh, and then centrifuged to collect mesothelial cells. The cells were cultured under conditions of 37° C. and 5% CO2 in a medium which was obtained by adding 10% FBS to Eagle's MEMI (Nissui) supplemented with Eagle's MEM amino acid vitamin medium (Nissui) in a volume twice as great as that of the MEMI. A mesothelial cell monolayer which had reached a confluent density after 1 week of culturing was used for invasion assay.
(§2) The MM1 cells, which are highly invasive clones of rat ascites hepatoma cells (AH-130), were established by Mukai et al., (Int. J. Cancer : 81, 918-922 (1999)), and was cultured under the same conditions as those for mesothelial cells.
(§3) In vitro invasion assay was developed by Akedo et al (Akedo, H et al., Cancer Res. 46, 2416-2422 (1986)). MM1 cells were multi-layer-cultured on the mesothelial cell layer, which had been grown to reach a confluent density, in the presence of 10% FBS or 25 μM LPA (SIGMA). 25 μM cPA was then added. The cells were cultured under conditions of 37° C. and 5% CO2 for 20 hours, and then fixed with 10% formalin. The number of colonies of MM1 cells that had invaded was counted under a phase-contrast microscope (FIG. 3).
cPA and LPA were ice-cooled in PBS containing 0.1% fatty-acid free BSA (SIGMA), ultrasonicated, emulsified, stored at −20° C., and then used.
0.5 μM, 1 μM and 10 μM carba-cPA were added to MM1 cells, and then in vitro invasion assay was performed similarly to (1-1) in the presence of 25 μM LPA.
The following reagents were respectively added to an in vitro invasion assay system so as to examine their effects on MM1 cell invasion in the presence of 25 μM LPA: Forskolin (Wako) which directly activates adenylate cyclase (cAMP synthase); cholera toxin (CTX) (GIBCO BRL) which prevent the deactivation of G protein (Gs) which activates adenylate cyclase; Bt2cAMP (nacalai tesque) which can pass through the membrane and functions in a manner similar to that of cAMP when it enters the cell; or isobutylmethylxanthine (IBMX, 3-isobutyl-1-methylxanthine) (SIGMA) which inhibits phosphodiesterase (cAMP degrading enzyme).

MM1 cells [4] = experiment: In vitro invasion assay, FBS-induced invasion of MM1 cells; assay type: cell-based, rat; conditions: 25 μM cPA derivative, 10% FBS, 20 hours
Description: as §1, §2
as §3, with “3). […]” for “3).”

HT-1080 cells = experiment: In vitro invasion assay of HT-1080 cells in the absence of serum/LPA; assay type: cell-based, human
Description: HT-1080 cells were cultured under conditions of 37° C. and 5% CO2 in Eagle's MEMI (Nissui) supplemented with a one-hundredth volume of nonessential amino acid solution (GIBCO BRL) and 10% FBS. […] 4 hours later, the cells were fixed, and then the cells that had invaded were counted.

MM1 cells [5] = experiment: Measurement of intracellular cAMP in MM1 cells; assay type: cell-based, rat; conditions: 25 μM cPA or 10 μM Forskolin, pretreated with 1 mM IBMX
Description: After a certain time period, 10% ice-cooled TCA was added to stop the reaction. The centrifuged supernatant was washed 4 times with water-saturated diethylether to remove TCA, and then placed under nitrogen gas flow at 60° C. to remove the solvent completely. cAMP in the resultant sample was measured using a cyclic AMP [^3H] assay system (Amersham).

Row | Compound | suppressed LPA-induced invasion by (MM1 cells [1]) | effect on MM1 cell proliferation (in words) (MM1 cells [2]) | further results
1 | CCCCCCCCCCCCCCCCCCCC(=O)OCC1COP(=O)([O-])O1.[Na+] (stereo not shown) [Ara-cPA] | around 50% | – | –
2 | CCCCCCCCCCCC(=O)OCC1COP(=O)([O-])O1.[Na+] (stereo not shown) [Lau-cPA] | around 50% | – | –
3 | CCCCCCCC/C=C\CCCCCCCC(=O)OC[C@@H]1COP(=O)(O)O1 [Ole-cPA] | approximately 60% | proliferation suppressing activity | invasion suppressing action on LPA-induced invasion (in words) (MM1 cells [1]): weak
4 | CCCCCC[C@@H]1C[C@@H]1CCCCCCCC(=O)OC[C@@H]1COP(=O)(O)O1 [PHYLPA] | around 50% | – | –
5 | CCC=CCC=CCC=CCC=CCC=CCCCC(=O)OCC1COP(=O)(O)O1 (stereo not shown) [cPA-12] | – | – | suppression of LPA-induced invasion (in words) (MM1 cells [3]): not suppressed; suppression of FBS-induced invasion (MM1 cells [4]): approximately 70%
6 | CCCCCC/C=C\CCCCCCCC(=O)OCC1COP(=O)([O-])O1.[Na+] (stereo not shown) [ΔPal-cPA] | around 50% | proliferation suppressing activity | invasion suppressing action on LPA-induced invasion (in words) (MM1 cells [1]): weak
7 | carba-Pal-cPA [cPA-18] | – | no effect on MM1 cell proliferation | invasion suppressing activity on HT-1080 cells (in words) (HT-1080 cells; 10 μM cPA, absence of serum/LPA, 4 hours): invasion suppressing activity on the cells at the same strength as or a level stronger than that exhibited by natural cPA; change of intracellular cAMP concentration (in words) (MM1 cells [5]; listed as Carba-Pal-cPA): a similar result was obtained; change of intracellular cAMP concentration (in words) (MM1 cells [5]; listed as carba-Pal-cPA): the change of cAMP concentration was not observed
8 | lysophosphatidic acid [LPA, reference compound] | – | – | promotion of HT-1080 cell invasion (in words) (HT-1080 cells; 25 μM LPA added): the invasion was no longer promoted
